Source: article PMC9865629, “Rhanteriol, a New Rhanterium suaveolens Desf. Lignan with Pharmacological Potential as an Inhibitor of Enzymes Involved in Neurodegeneration and Type 2 Diabetes” (Plants, 2023)

Columns and labels:
BuChE = conditions: read-out: IC50 (BuChE, by context); lignans from Citharexylum spinosum L.; cited from earlier work
[1] = target: butyrylcholinesterase (BuChE) (Homo sapiens, UniProt P06276); experiment: biochemical
Procedure: (§1) The inhibition of AChE and BuChE was evaluated using Ellman’s method, as previously reported. Briefly, extracts and pure compound were incubated with AChE or BuChE (25 µL, 0.05 U/mL), DTNB (125 µL, 3 mM) and buffer B (25 µL, 50 mM Tris–HCl, pH 8 containing 0.1% BSA) for 10 min at 37 °C. Then, the substrate of the reaction, the acetylthiocholine iodide or butyrylthiocholine chloride (25 µL, 5 mM), was added, and the absorbance was measured at 405 nm, after 10 min. Galanthamine was used as the standard in both assays. Results are expressed as IC50 values (mg/mL for extracts and µM for pure compound), using GraphPad Prism 8 Software (San Diego, CA, USA). The test was carried out in triplicate.

[2] = target: acetylcholinesterase (AChE) (Homo sapiens, UniProt P22303); experiment: biochemical; conditions: read-out: % of inhibition against AChE
Procedure: as §1

[3] = system: U937 (monocytic leukemia) cells; experiment: Cell viability MTT assay, U937; assay type: cell-based; conditions: 100, 50, 25 µM for 48 h, data not shown
Procedure: (§2) HeLa (cervical carcinoma), Jurkat (T-cell leukemia), and U937 (monocytic leukemia) cell lines were obtained from the American Type Cell Culture (ATCC) (Rockville, MD, USA). Cells were maintained in DMEM (HeLa) or RPMI 1640 (Jurkat and U937), supplemented with 10% FBS, 100 mg/L streptomycin and penicillin 100 IU/mL at 37 °C in a humidified atmosphere of 5% CO2. To ensure logarithmic growth, cells were subcultured every two days. Stock solutions (50 mM) of purified compound in DMSO were stored in the dark at 4 °C. Appropriate dilutions were prepared in a culture medium immediately prior to use.
(§3) Cell viability was evaluated using a colorimetric assay based on an MTT ([3-(4,5-dimethylthiazol-2-yl)-2,5-diphenyltetrazolium bromide]) assay, in order to compare the effect of potentially cytotoxic substances with a control condition. Briefly, cells were plated in 96-well tissue culture plates (3.5 × 10^3 cells/well) and after 24 h, the medium was replaced with a fresh one alone or one containing serial dilutions of compound 1 (100, 50, 25 µM), and incubation was performed for 48 h. […] The optical density (OD) of each well was measured with a microplate spectrophotometer (Multiskan Spectrum Thermo Electron Corporation reader, Thermo Fisher Scientific, Waltham, Massachusetts, United States) equipped with a 620 nm filter. Cell vitality was calculated as % vitality = 100 × (OD treated/OD DMSO).

[4] = system: HeLa (cervical carcinoma) cells; experiment: Cell viability MTT assay, HeLa; assay type: cell-based; conditions: 100, 50, 25 µM for 48 h, data not shown
Procedure: as §2, §3

[5] = system: Jurkat (T-cell leukemia) cells; experiment: Cell viability MTT assay, Jurkat; assay type: cell-based; conditions: 100, 50, 25 µM for 48 h, data not shown
Procedure: as §2, with “use. […]” for “use.”
as §3, with “condition.” for “condition. Briefly, cells were plated in 96-well tissue culture plates (3.5 × 10^3 cells/well) and after 24 h, the medium was replaced with a fresh one alone or one containing serial dilutions of compound 1 (100, 50, 25 µM), and incubation was performed for 48 h.”

[6] = system: HaCaT epidermal keratinocytes; experiment: Cell viability MTT assay, HaCaT; assay type: cell-based; conditions: 100, 50, 25 µM for 48 h, data not shown
Procedure: Epidermal keratinocytes (HaCaT) were cultured in Dulbecco’s Modified Eagle’s Medium containing 10% fetal bovine serum, supplemented with 100 U/mL each of penicillin and streptomycin, and 2 mM/L glutamine, and grown at 37 °C under 5% CO2 air humidified atmosphere. Human leukemia cell lines (Jurkat) were maintained in RPMI medium supplemented with 10% FBS, 2 mM l-glutamine, 100 U/mL penicillin, and […] at 37 °C, in 5% CO2 [26].
as §3, with “h. Staurosporin 0.2 µM was used as a positive control.” for “h.”

α-glucosidase = α-glucosidase inhibition assay; assay type: biochemical; conditions: pure compound and standard
Procedure: Results are expressed as IC50 values (mg/mL for extracts and µM for pure compound), using GraphPad Prism 8 Software (San Diego, CA, USA). The assay was carried out in triplicate.

Chain of acetylcholinesterase (AChE) (P22303 32-614, species assumed): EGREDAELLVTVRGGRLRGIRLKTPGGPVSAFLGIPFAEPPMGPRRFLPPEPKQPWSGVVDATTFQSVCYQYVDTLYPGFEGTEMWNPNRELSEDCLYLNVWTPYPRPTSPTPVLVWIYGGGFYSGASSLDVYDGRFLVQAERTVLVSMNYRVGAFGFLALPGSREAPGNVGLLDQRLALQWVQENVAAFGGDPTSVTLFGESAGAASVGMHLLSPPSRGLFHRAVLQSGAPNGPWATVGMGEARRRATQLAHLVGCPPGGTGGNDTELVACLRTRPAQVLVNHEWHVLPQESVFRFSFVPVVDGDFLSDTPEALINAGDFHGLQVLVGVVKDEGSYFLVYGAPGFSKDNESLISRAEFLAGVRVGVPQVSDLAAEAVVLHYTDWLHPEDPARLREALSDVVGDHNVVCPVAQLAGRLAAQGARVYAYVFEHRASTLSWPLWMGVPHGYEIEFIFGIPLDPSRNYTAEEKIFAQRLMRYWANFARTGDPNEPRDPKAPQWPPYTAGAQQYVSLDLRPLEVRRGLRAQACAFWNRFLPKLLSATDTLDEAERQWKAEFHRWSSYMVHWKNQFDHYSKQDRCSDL
Chain of butyrylcholinesterase (BuChE) (P06276 29-602): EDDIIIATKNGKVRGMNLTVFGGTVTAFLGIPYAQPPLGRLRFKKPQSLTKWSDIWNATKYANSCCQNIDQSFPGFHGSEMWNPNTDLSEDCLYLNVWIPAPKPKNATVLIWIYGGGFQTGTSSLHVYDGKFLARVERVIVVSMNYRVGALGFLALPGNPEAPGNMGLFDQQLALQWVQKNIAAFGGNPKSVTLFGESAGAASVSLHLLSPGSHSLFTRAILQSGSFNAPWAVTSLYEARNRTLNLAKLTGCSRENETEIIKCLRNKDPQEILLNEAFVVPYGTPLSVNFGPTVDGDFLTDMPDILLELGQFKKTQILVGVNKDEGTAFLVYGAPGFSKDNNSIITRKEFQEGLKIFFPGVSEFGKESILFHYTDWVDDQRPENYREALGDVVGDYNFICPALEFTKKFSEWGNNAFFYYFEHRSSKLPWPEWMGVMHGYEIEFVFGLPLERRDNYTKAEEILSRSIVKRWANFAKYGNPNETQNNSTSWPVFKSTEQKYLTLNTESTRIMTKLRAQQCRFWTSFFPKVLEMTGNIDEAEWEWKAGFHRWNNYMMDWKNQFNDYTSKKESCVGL

Compound | IC50 (BuChE) [µM] | IC50 [1] [µM] | inhibition at 100 µM [2] [%] | cytotoxicity (MTT) [3] | cytotoxicity (MTT) [4] | cytotoxicity (MTT) [5] | cytotoxicity (MTT) [6] | IC50 (α-glucosidase) [µM]
plucheoside D1 | 98.1 ± 2.72 | – | – | – | – | – | – | –
plucheoside D2 | 71.3 ± 2.82 | – | – | – | – | – | – | –
COc1cc(C[C@@H]2CO[C@@H](c3ccc(O)c(OC)c3)[C@@H]2COC(=O)c2ccccc2)ccc1O [Compound 1, 4-benzoic acid 4-(4-hydroxy-3-meethoxybenzyl)-2-(4-hydroxy-3-methoxyphenyl) tetrahydrofuran-3-ylmethyl ester] | – | 10.41 ± 0.03 | 21 | not toxic | not toxic | not toxic | not toxic | 26.8 ± 3.29
